Laboratory results from US20250327097A1, “ORGANISMS PRODUCING LESS CROTONIC ACID” (Global Bioenergies, priority 2021, published 2025).

Legend:
TaFdcV = experiment: Acid binding and cycloadduct formation with TaFdcV (UV-Vis, ESI-MS, co-crystallization)
Experimental: TaFdcV (500 μL, 0.45 mM protein, 25 mM HEPES, 150 mM KCl, pH 6.8) was incubated with crotonic or 2-butynoic acid. The formation of the prFMN-crotonic acid cycloadduct was followed by UV-Vis spectroscopy and additional acid were added until full conversion (complete loss of the 380 nm peak). The protein was desalted to 25 mM HEPES, 150 mM KCl, pH 6.8 and plated for crystal trials.

TaFdc = experiment: Acid binding and cycloadduct formation with TaFdc wild-type (UV-Vis)
[1] = test system: ferulic acid decarboxylase (FDC); experiment: Inhibition of ferulic acid decarboxylase; assay type: biochemical
Source text: In recombinant organisms or microorganisms, 3-methylcrotonic acid, the substrate of FDC, can be produced from acetyl-CoA in a multistep enzymatic process. The final conversion of 3-methylcrotonic acid into isobutene can be carried out in the same recombinant organism or microorganism that has been used for the production of 3-methylcrotonic acid. In such a one-step process, it is required that the recombinant organism or microorganism encodes the enzyme FDC. Alternatively, isobutene may be produced from 3-methylcrotonic acid in a two-step process. For that, a fermentation culture medium of a recombinant organism or microorganism comprising the produced 3-methylcrotonic acid may be contacted with a recombinant organism or microorganism encoding the enzyme FDC in an in vivo or in vitro biotransformation reaction. In an alternative two-step process, a first recombinant organism or microorganism may be used to convert acetyl-CoA into 3-hydroxyisovaleric acid and the produced 3-hydroxyisovaleric acid may then be converted into isobutene by a second recombinant organism or microorganism (via 3-methylcrotonic acid and FDC).

AnFdc = AnFdc (Aspergillus niger, UniProt A2QHE5); experiment: Quantitative GC assay of pentene production from hexenoic acid; assay type: biochemical
AnFdc wild-type = AnFdc wild-type (Aspergillus niger, UniProt A2QHE5); experiment: Crotonic acid binding by UV-Vis spectra, AnFdc wild-type; settings: 2-h incubation
AnFdcII = AnFdcII (Aspergillus niger, UniProt A2QHE5, P438W/R435P/T395M); assay type: binding
3-methylcrotonic acid = experiment: Initial in vivo screening of Fdc homologues co-expressed with UbiX for 3-methylcrotonic acid decarboxylation (isobutene by GC); assay type: cell-based, E. coli; settings: isobutene in headspace from 10 mM 3-methylcrotonic acid; Fdc (MCS1, N-terminal 6His-tag) and UbiX (MCS2) in pETDuet
crotonyl-CoA = experiment: Coupled assay positive control: purified FabV with crotonyl-CoA; assay type: biochemical, Treponema denticola; settings: 1 mM crotonyl-CoA, 100 μg/ml FabV, 18 h at 34° C.
Experimental: The acid-CoA ligases were tested as purified enzymes with a coupled assay using purified FabV from Treponema denticola (EC 1.3.1.44) (Uniprot Accession No: Q73Q47) (to convert crotonyl-CoA to butyryl-CoA). The reaction was carried out as follows: 50 μg/ml acid-CoA ligase and 100 μg/ml FabV with a buffered solution containing 100 mM Tris-HCl pH7.5, 20 mM NaCl, 100 mM KCl, 2 mM MgCl2, 1 mM crotonic acid (TCI chemicals), 1 mM ATP (Sigma-Aldrich), 1 mM coenzyme A (Sigma-Aldrich) and 1 mM NADH (Sigma-Aldrich) were incubated 18 h at 34° C. in a water bath, and the reaction was stopped with acetonitrile. […] The produced butyryl-CoA (Sigma-Aldrich) and the consumed crotonic acid (TCI chemicals) were quantified by HPLC with a calibration curve. The samples were injected on a Zorbax SB-Aq column (Agilent) at 30° C. and eluted with 8.4 mM H2SO4 and a gradient of acetonitrile.
The CoA-transferase was tested as purified enzyme with a coupled assay using purified FabV from Treponema denticola (EC 1.3.1.44) (Uniprot Accession No: Q73Q47) (to convert crotonyl-CoA to butyryl-CoA). […] The produced butyryl-CoA (Sigma-Aldrich) and the consumed crotonic acid (TCI chemicals) were quantified by HPLC with a calibration curve. […]

With CC#CC(=O)O [2-butynoic acid] the “binding to TaFdcV, UV-Vis spectrum after desalting” value (“binding to TaFdcV, UV-Vis spectrum” for short) (TaFdcV) was “covalent inhibitory adduct is formed” and the “state of the adduct by ESI-MS and co-crystallization” value (TaFdcV) was “stalls as Int1”.

With CCCC=CC(=O)O [2-hexenoic acid] the “binding to TaFdc, UV-Vis spectrum after desalting” value (TaFdc) was “irreversibly binds”, the “inhibition of FDC” value [1] was “irreversible inhibitors” and the “pentene production from hexenoic acid” value (AnFdc) was “limited to a single turnover”. For the same molecule, the “binding to TaFdcV, UV-Vis spectrum” value (TaFdcV) was “irreversibly binds”.

With CCC=CC(=O)O [2-pentenoic acid] the “binding to TaFdc, UV-Vis spectrum after desalting” value (TaFdc) was “irreversibly binds”, the “inhibition of FDC” value [1] was “irreversible inhibitors” and the “binding to TaFdcV, UV-Vis spectrum” value (TaFdcV) was “irreversibly binds”.

C/C=C/C(=O)O [crotonic acid] was tested, and the “binding by UV-Vis spectra” value (AnFdc wild-type) was “cannot be detected”, the “inhibition of FDC” value [1] was “irreversible inhibitors” and the “binding to TaFdcV, UV-Vis spectrum” value (TaFdcV) was “covalent inhibitory adduct is formed”. The “binding by UV-Vis spectra” value (AnFdcII) was “readily bind the inhibitor”.

B1: ScFdc-UbiX: Fdc homologue, Uniprot Q03034, co-expressed with UbiX in pETDuet (protein, UniProt Q03034 1-503, looked up)
Ferulic acid decarboxylase 1: MRKLNPALEFRDFIQVLKDEDDLIEITEEIDPNLEVGAIMRKAYESHLPAPLFKNLKGASKDLFSILGCPAGLRSKEKGDHGRIAHHLGLDPKTTIKEIIDYLLECKEKEPLPPITVPVSSAPCKTHILSEEKIHLQSLPTPYLHVSDGGKYLQTYGMWILQTPDKKWTNWSIARGMVVDDKHITGLVIKPQHIRQIADSWAAIGKANEIPFALCFGVPPAAILVSSMPIPEGVSESDYVGAILGESVPVVKCETNDLMVPATSEMVFEGTLSLTDTHLEGPFGEMHGYVFKSQGHPCPLYTVKAMSYRDNAILPVSNPGLCTDETHTLIGSLVATEAKELAIESGLPILDAFMPYEAQALWLILKVDLKGLQALKTTPEEFCKKVGDIYFRTKVGFIVHEIILVADDIDIFNFKEVIWAYVTRHTPVADQMAFDDVTSFPLAPFVSQSSRSKTMKGGKCVTNCIFRQQYERSFDYITCNFEKGYPKGLVDKVNENWKRYGYK
modifications: co-expressed with UbiX
notes: Fdc homologue, Uniprot Q03034, co-expressed with UbiX in pETDuet
In the case of B1, the “ppm Average” value (3-methylcrotonic acid) is reported as 17.6 ppm.

B2: CdFdc-UbiX: Fdc homologue, Uniprot B9WJ66, co-expressed with UbiX in pETDuet (protein, UniProt B9WJ66 1-513, looked up)
Ferulic acid decarboxylase 1: MSLNPALKFRDFIQVLKNEGDLIEIDTEVDPNLEVGAITRKAYENKLAAPLFNNLKQDPENIDPKNLFRILGCPGGLRGFGNDHARIALHLGLDSQTPMKEIIDFLVANRNPKKYIPPVLVPNDQSPHKKHHLTKEQIDLTKLPVPLLHHGDGGKFIQTYGMWVLQTPDKSWTNWSIARGMVHDSKSITGLVINPQHVKQVSDAWVAAGKGDKIPFALCFGVPPAAILVSSMPIPDGATEAEYIGGLCNQAVPVVKCETNDLEVPADCEMVFEGYLDRDTLVREGPFGEMHGYCFPKDHHTQPLYRVNHISYRDQAIMPISNPGLCTDETHTLIGGLVSAETKYLISQHPVLSKIVEDVFTPYEAQALWLAVKINTHELVKLKTNAKELSNLVGDFLFRSKECYKVCSILHEIILVGDDIDIFDFKQLIWAYTTRHTPVQDQLYFDDVKPFALAPFASQGPLIKTRQGGKCVTTCIFPKQFTDPDFEFVTCNFNGYPEEVKNKISQNWDKYYK
modifications: co-expressed with UbiX
notes: Fdc homologue, Uniprot B9WJ66, co-expressed with UbiX in pETDuet
B2 was tested, and the “ppm Average” value (3-methylcrotonic acid) was 4.8 ppm.

B3: FabV: purified FabV from Treponema denticola (EC 1.3.1.44), Uniprot Q73Q47 (protein, listed as Treponema denticola)
chain: MIVKPMVRNNICLNAHPQGCKKGVEDQIEYTKKRITAEVKAGAKAPKNVLVLGCSNGYGLASRITAAFGYGAATIGVSFEKAGSETKYGTPGWYNNLAFDEAAKREGLYSVTIDGDAFSDEIKAQVIEEAKKKGIKFDLIVYSLASPVRTDPDTGIMHKSVLKPFGKTFTGKTVDPFTGELKEISAEPANDEEAAATVKVMGGEDWERWIKQLSKEGLLEEGCITLAYSYIGPEATQALYRKGTIGKAKEHLEATAHRLNKENPSIRAFVSVNKGLVTRASAVIPVIPLYLASLFKVMKEKGNHEGCIEQITRLYAERLYRKDGTIPVDEENRIRIDDWELEEDVQKAVSALMEKVTGENAESLTDLAGYRHDFLASNGFDVEGINYEAEVERFDRI
modifications: FabV
notes: purified FabV from Treponema denticola (EC 1.3.1.44), Uniprot Q73Q47
For B3, the “conversion of crotonyl-CoA to butyryl-CoA” value (crotonyl-CoA) was “could convert all of it to butyryl-CoA”.

B4: UbiX alone: UbiX (E. coli K-12) expressed without Fdc, control (protein, UniProt P0AG03 1-189, looked up)
Flavin prenyltransferase UbiX: MKRLIVGISGASGAIYGVRLLQVLRDVTDIETHLVMSQAARQTLSLETDFSLREVQALADVTHDARDIAASISSGSFQTLGMVILPCSIKTLSGIVHSYTDGLLTRAADVVLKERRPLVLCVRETPLHLGHLRLMTQAAEIGAVIMPPVPAFYHRPQSLDDVINQTVNRVLDQFAITLPEDLFARWQGA
B4 was tested, and the “ppm Average” value (3-methylcrotonic acid) was 3.3 ppm.
